Test results reported in ChEMBL document CHEMBL5505987 (Eur J Med Chem, 2024).
Counter-ions that a name gives are not always drawn.

System: 4T1
Assay: Cytotoxicity against mouse 4T1 cells assessed as cell viability by MTT assay
Assay type: functional, cell-based

COc1cccc2c1C(=O)c1c(O)c3c(c(O)c1C2=O)C[C@@](O)(C(=O)CO)C[C@@H]3O[C@H]1C[C@H](N)[C@H](O)[C@H](C)O1 [DOXORUBICIN HYDROCHLORIDE]
IC50: 2400 nM
